Values joined by “and” are separate entries in the source; they are usually repeats but may differ in a detail not shown here. Equal entries are not always repeated. Where two headings read alike, the source gives them in different places.
Experiments:
acetylcholinesterase [1] = target: T1, acetylcholinesterase (Homo sapiens, UniProt P22303); assay: Inhibition of acetylcholinesterase, procedure of Ellman (acetylthiocholine substrate, photometric); format: biochemical; conditions: for cholinesterase inhibition at 10^−5 M: further compounds; for inhibition at 1 µM: read-out: inhibition of acetylcholinesterase at concentration 10^−6 molar; for inhibition at 0.001 µM: read-out: inhibition of acetylcholinesterase at concentration 10^−9 molar
T1 sequence (P22303 32-614, species assumed): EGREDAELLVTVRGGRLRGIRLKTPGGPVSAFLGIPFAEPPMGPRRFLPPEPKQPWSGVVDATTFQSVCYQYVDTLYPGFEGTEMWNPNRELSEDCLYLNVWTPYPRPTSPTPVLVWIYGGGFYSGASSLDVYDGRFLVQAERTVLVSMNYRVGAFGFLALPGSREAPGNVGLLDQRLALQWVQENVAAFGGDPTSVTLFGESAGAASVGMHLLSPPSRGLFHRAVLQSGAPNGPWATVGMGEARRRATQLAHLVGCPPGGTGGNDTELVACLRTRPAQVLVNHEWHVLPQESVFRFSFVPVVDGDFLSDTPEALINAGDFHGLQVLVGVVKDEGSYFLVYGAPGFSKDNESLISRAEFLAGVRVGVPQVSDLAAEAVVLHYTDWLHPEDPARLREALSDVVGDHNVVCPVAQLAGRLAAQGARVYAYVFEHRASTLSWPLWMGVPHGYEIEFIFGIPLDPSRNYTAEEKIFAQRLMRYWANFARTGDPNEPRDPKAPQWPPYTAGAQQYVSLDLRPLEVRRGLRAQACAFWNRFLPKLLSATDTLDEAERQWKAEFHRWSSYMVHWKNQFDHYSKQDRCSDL
Method: The anticholinesterase activity of the compounds prepared in the above examples was assayed by an assay for inhibition of acetylcholinesterase following the procedure of G. Ellman, […], 7:88-95 (1961) Acetylthiocholine serves as substrate since it acts like acetylcholine. Acetylcholinesterase cleaves it to thiocholine and acetate which react with dithiobisnitrobenzoate to form a yellow color which is measured photometrically.
This assay was carried out at dilution of 10^−5 molar
The compounds were tested in the assay described after Example 5 but at different concentrations. The results obtained were as follows:
Further compounds were prepared by methods analogous to those described above and were tested in a cholinesterase assay as described above.

[2] = system: scopolamine induced memory deficit; assay: Scopolamine dementia dark avoidance test (passive avoidance); format: in vivo, male CFW mice
Method: Furnished data on the effects of these compound on cholinesterase activity were used to determine doses for testing. […] The two other compounds were tested at 1,3 and 10 mg/kg sc and did antagonize the scopolamine induced deficit.
Training and testing of passive avoidance were conducted in a two-compartment (light/dark) test cage. On the training day, mice were individually placed in the light half of the cage and after entering the dark compartment, were administered a 3 sec 0.4 mA footshock. They were then removed from the test chamber and returned to their home cages. Twenty-four hours later, the animals were again placed in the lighted half of the test cage and the latency to enter the dark compartment was measured.
All animals in each group of 15 naive male CFW mice were injected twice subcutaneously. Thirty minutes prior to training, animals were administered 3 mg/kg scopolamine HBr or its 0.9% NaCl vehicle. Five minutes prior to training, independent groups were administered one of three doses of the test compounds or the distilled water vehicle. One group in each experiment received vehicle twice, another group received scopolamine and the dH2O vehicle; the remaining groups received scopolamine and a test compound.
A cutoff value (CO), defined as the second-longest latency in the scopolamine/vehicle treated group, was used to determine whether a compound was active. If 20% or more of the animals in a treatment group had latencies greater than the CO value, the compound was considered active at that dose.
The three compounds were tested in two separate experiments; the results are presented below in Tables 1 and 2. Doses considered active are marked with an asterisk (*).

[3] = system: nucleas basalis-lesioned animals; assay: Nucleus basalis model, passive avoidance in shuttle box; format: in vivo, mice; conditions: nucleus basalis model, mice, drug given three and ½ hours before learning trials
Description: The following test provides a good animal model for Alzheimer's disease in humans: A selective lesion is placed in a subcortical nucleus (nucleus basalis of Meynert) with a resultant cortical cholinergic deficiency, similar in magnitude to that seen in early to moderate stage Alzheimer's disease. Numerous behavioral deficits, including the inability to learn and retain new information, characterizes this lesion. Drugs that can normalize these abnormalities would have a reasonable expectation of efficacy in Alzheimer's disease. Haroutunian, V, Kanof P, Davis, K L: Pharmacological alleviations of cholinergic-lesion-induced memory defects in rats. Life Sciences, 37:945-952 (1985).
Galanthamine n-butyl carbamate was tested in the nucleus basalis model for galanthamine discussed in the Hartounian et al paper noted above. In the test, mice were given the drug three and ½ hours before two learning trials in a shuttle box. They are placed in the lighted compartment and receive an electric footshock when they cross into the preferred side, the dark. The next day, they are again placed in the lighted compartment and the time to enter the dark is noted. The latency to enter the dark compartment is the basis for this figure. […] Below 50 mg/kg no side effects were noted.

acetylcholinesterase [4] = target: T1, acetylcholinesterase; assay: biochemical
mice = assay: Profile of Observable Effects (POE), peripheral cholinergic effects; conditions: subcutaneous
Method: A number of compounds were also evaluated in a standardized Profile of Observable Effects (POE) which involves administering drug to animal in increasing amounts and observing this for up to two hours to see whether peripheral cholinergic effects such as tremor, lacrimation, salivation, pilo erection, defection or red eye occur.

[5] = Solubility noted on isolation of the product; format: physicochemical
acetylcholinesterase [6] = target: T1, acetylcholinesterase; assay: Acetylcholinesterase Inhibition Assay (other cholinesterase activity tests, may be less reliable); format: biochemical; conditions: results may be less reliable
cholinesterase = conditions: Irwin and Smith, Arch. Int. Pharmacodyn. 127:314-330; cited from earlier work
[7] = Table 1, scopolamine + 0.3 mg/kg sc, cut-off 38 seconds
[8] = Table 1, scopolamine + 2.0 mg/kg sc, cut-off 38 seconds
[9] = Table 1, scopolamine + 3.0 mg/kg sc, cut-off 38 seconds
[10] = 10^−5 molar, read-out: inhibition of acetylcholinesterase at concentration 10^−5
[11] = Table 2, scopolamine + 1 mg/kg sc, cut-off 41 seconds
[12] = Table 2, scopolamine + 3 mg/kg sc, cut-off 41 seconds
[13] = Table 2, scopolamine + 10 mg/kg sc, cut-off 41 seconds
[14] = dilution of 10^−5 molar, read-out: PERCENT INHIBITION OF ACETYLCHOLINESTERASE

## 4,5-dehydrogalanthamine
Acetylcholinesterase [1]
  cholinesterase inhibition at 10^−5 M: 30

## COc1ccc2c3c1OC1CC(O)C=C[C@@]31CCNC2 (single isomer, unassigned; (-)) [N-demethyl galanthamine, (−) N-demethylgalanthamine]
[2]; [7]
  # > CO/n: 0/15
  % > CO: 0%
  Mean Latency: 21 s
[2]; [8]
  # > CO/n: 2/15
  % > CO: 13%
  Mean Latency: 33 s
[2]; [9]
  # > CO/n: 2/15
  % > CO: 13%
  Mean Latency: 26 s
[2]; doses of 0.3, 1.0 and 3.0 mg/kg
  antagonism of scopolamine induced memory deficit: inactive

## COc1ccc2c3c1OC1CC(N)CCC31CCN(C)C2 (stereo not shown) [2-amino-2-dehydroxy lycoramine]
Acetylcholinesterase [1]
  cholinesterase inhibition at 10^−5 M: 17

## COc1ccc2c3c1OC1CC(I)CCC31CCN(C)C2 (stereo not shown) [2-iodo-2-dehydroxy lycoramine]
Acetylcholinesterase [1]
  cholinesterase inhibition at 10^−5 M: 15

## COc1ccc2c3c1O[C@H]1CC(O)C=C[C@@]31CCN(C)C2 (stereo partly shown) [Galanthamine, reference compound]
[3]
  best dose in passive avoidance test: 3 mg/kg

## COc1ccc2c3c1OC1CC(O)CCC31CCNC2 (stereo not shown) [N-demethyl lycoramine]
Acetylcholinesterase [1]; 10^−5 molar
  inhibition of acetylcholinesterase at concentration 10^−5: inactive

## CN1CC[C@@]23C=C[C@H](O)CC2Oc2c(O)ccc(c23)C1 (stereo partly shown) [O-demethyl-galanthamine, O-demethyl galanthamine]
Acetylcholinesterase [1]; [10]
  inhibition at 10 µM: ≥ 100%
Acetylcholinesterase [1]
  inhibition at 1 µM: 89%
  inhibition at 0.001 µM: 55%

## CNC(=O)Oc1ccc2c3c1OC1CC(O)C=CC31CCN(C)C2 (stereo not shown) [O-demethyl-galanthamine-13-methyl carbamate]
Acetylcholinesterase [4]; IC50, acetyl cholinesterase inhibition, S 0.3 mM
  IC50: 2 nM
Acetylcholinesterase [4]; IC50, acetyl cholinesterase inhibition, S 5 mM
  IC50: 2 nM
mice; 0.31 mg/kg
  POE, mice showing peripheral cholinergic effects: not noted in any of four mice
mice; 0.63 mg/kg
  POE, mice showing peripheral cholinergic effects: noticeable in one mouse out of four
mice; 1 mg/kg
  POE, mice showing peripheral cholinergic effects: in all four mice

## COc1ccc2c3c1O[C@H]1C[C@@H](OC(C)=O)C=C[C@@]31CCN(C)C2 [Product of Example 2, Galanthamine acetate]
[2]; [11]
  # > CO/n: 1/15
  % > CO: 7%
  Mean Latency: 21 s
[2]; [12]
  # > CO/n: 4/15
  Mean Latency: 38 s
[2]; Table 2, scopolamine + 3 mg/kg sc, cut-off 41 seconds, * = dose considered active
  % > CO: 27* %
[2]; [13]
  # > CO/n: 3/15
  Mean Latency: 31 s
[2]; Table 2, scopolamine + 10 mg/kg sc, cut-off 41 seconds, * = dose considered active
  % > CO: 20* %
[2]; doses of 3 and 10 mg/kg sc
  antagonism of scopolamine induced memory deficit: active
Acetylcholinesterase [1]; [14]
  inhibition at 10 µM: 37%

## COc1ccc2c3c1O[C@H]1C[C@@H](OC(=O)Nc4ccccc4)C=C[C@@]31CCN(C)C2 [Product of Example 3]
Acetylcholinesterase [1]; [14]
  inhibition at 10 µM: 37%

## COc1ccc2c3c1OC1CC(OC(=O)Nc4cccc5ccccc45)C=CC31CCN(C)C2 (stereo not shown) [Product of Example 4]
Acetylcholinesterase [1]; dilution of 10^−5 molar
  PERCENT INHIBITION OF ACETYLCHOLINESTERASE: 60%

## COc1ccc2c3c1O[C@H]1C[C@@H](O)CC[C@@]31CCN(C)C2 [Product of Example 5]
Acetylcholinesterase [1]; [14]
  inhibition at 10 µM: 30%

## COc1ccc2c3c1O[C@H]1C[C@@H](O[Si](C(C)C)(C(C)C)C(C)C)C=C[C@@]31CCN(C)C2 [Product of Example 7]
[5]
  solubility in alcohols: soluble
Acetylcholinesterase [1]; 10^−5 molar
  inhibition of acetylcholinesterase at concentration 10^−5: 17

## COc1ccc2c3c1OC1C[C@H](Cl)C=C[C@@]31CCN(C)C2 (stereo partly shown) [Product of Example 10]
Acetylcholinesterase [1]; [10]
  inhibition at 10 µM: 73%

## COC1C=C[C@@]23CCN(C)Cc4ccc(O)c(c42)OC3C1 (stereo partly shown) [childanthine]
Acetylcholinesterase [4]; read-out: IC50, acetyl cholinesterase inhibition
  IC50: 310 nM and 80 nM

## COc1ccc2c3c1O[C@H]1C[C@@H](OC(=O)C4CC4)C=C[C@@]31CCN(C)C2 [cyclopropyl carbinol ester]
Acetylcholinesterase [6]
  % Inhibition at 10^−6: 13%
  % Inhibition at 10^−7: 0%
  % Inhibition at −10^−5: 40%

## COc1ccc2c3c1OC1CCCC[C@@]31CCN(C)C2 (stereo partly shown) [deoxylycoramine]
cholinesterase
  cholinesterase activity: some activity

## COc1ccc2c3c1O[C@H]1C[C@H](OC(C)=O)C=C[C@@]31CCN(C)C2 [epigalanthamine acetate (from Example 8), epigalanthamine acetate]
[5]
  solubility in alcohols: soluble
Acetylcholinesterase [1]; [10]
  inhibition at 10 µM: 21%

## CCNC(=O)O[C@H]1C=C[C@@]23CCN(C)Cc4ccc(OC)c(c42)O[C@H]3C1 [ethyl carbaxnate]
Acetylcholinesterase [6]
  % Inhibition at 10^−6: 70%
  % Inhibition at 10^−7: 9%
  % Inhibition at −10^−5: 59%

## COc1cc2c3c(c1)OC1C[C@@H](O)C=C[C@@]31CC[N+](C)(Cc1ccccc1)C2.[Br-] (stereo partly shown) [galanthamine benzyl bromide]
[5]
  solubility in alcohols: soluble
Acetylcholinesterase [1]
  inhibition at 1 µM: 77%
  inhibition at 0.001 µM: 40%

## COc1ccc2c3c1O[C@H]1C[C@@H](O)C=CC31CC[N+](C)(C)C2.[I-] (stereo partly shown) [galanthamine methiodide]
[5]; cold water
  solubility in cold water: slightly soluble
[5]; hot water
  solubility in hot water: soluble

## CCCCCC(=O)O[C@H]1C=C[C@@]23CCN(C)Cc4ccc(OC)c(c42)O[C@H]3C1 [hexanoic ester]
Acetylcholinesterase [6]
  % Inhibition at 10^−6: 30%
  % Inhibition at 10^−7: 36%
  % Inhibition at −10^−5: 55%

## COc1ccc2c3c1O[C@H]1C[C@@H](OC(=O)CC(C)C)C=C[C@@]31CCN(C)C2 [iso-valeroyl ester]
Acetylcholinesterase [6]
  % Inhibition at 10^−6: 39%
  % Inhibition at 10^−7: 13%
  % Inhibition at −10^−5: 33%

## CC(C)OC(N)=O [isopropyl carbamate]
Acetylcholinesterase [6]
  % Inhibition at 10^−6: 0%
  % Inhibition at 10^−7: 0%
  % Inhibition at −10^−5: 21%

## COc1ccc2c3c1OC1CC(OC(C)=O)CCC31CC[N+](C)(C)C2.[I-] (stereo not shown) [lycoramine acetate methiodide]
cholinesterase
  cholinesterase activity: ineffective

## CCCOC(N)=O [n-propyl carbamate]
Acetylcholinesterase [6]
  % Inhibition at 10^−6: 50%
  % Inhibition at 10^−7: 21%
  % Inhibition at −10^−5: 34%

## COc1cc2c3c(c1)OC1C/C(=N/NC(N)=O)C=C[C@@]31CCN(C)C2 (stereo partly shown) [narwedine semicarbazone]
[5]
  solubility in alcohols: soluble
Acetylcholinesterase [1]; 10^−5 molar
  inhibition of acetylcholinesterase at concentration 10^−5: inactive

## COc1ccc2c3c1OC1C(O)CC=C4C(C2)[N+](C)(C)CCC431.[I-] (stereo not shown) [neopin methiodide]
cholinesterase
  cholinesterase activity: ineffective

## COc1ccc2c3c1O[C@H]1C[C@@H](OC(=O)c4ccccc4F)C=C[C@@]31CCN(C)C2 [o-F-benzoic ester]
Acetylcholinesterase [6]
  % Inhibition at 10^−6: 39%
  % Inhibition at 10^−7: 37%
  % Inhibition at −10^−5: 27%

## CCCCCCCCOC(N)=O [octyl carbamate]
Acetylcholinesterase [6]
  % Inhibition at 10^−6: 35%
  % Inhibition at 10^−7: 16%
  % Inhibition at −10^−5: 55%

## CCCCC(=O)O[C@H]1C=C[C@@]23CCN(C)Cc4ccc(OC)c(c42)O[C@H]3C1 [valeric ester]
Acetylcholinesterase [6]
  % Inhibition at 10^−6: 35%
  % Inhibition at 10^−7: 37%
  % Inhibition at −10^−5: 41%

## deoxydemethyl lycoramine methiodide
cholinesterase
  cholinesterase activity: good activity

## lycoramine azide
Acetylcholinesterase [1]
  cholinesterase inhibition at 10^−5 M: 25

— US20040023984A1, “Compounds for the treatment of alzheimer's disease” (priority 1987, published 2004)
